What was measured:
[1] = test system: E.G7-OVA murine lymphoma cells; experiment: Tumor volume in immune cell profile study of established tumors (E.G7-OVA-e217 protocol); format: in vivo, C57BL/6 mice; conditions: at study end; INT-151 100 μg/animal 3 times a week; anti-CTLA-4 100 μg then 50 μg ×2; n=6; FIG. 6
From the text: (§1) In this study the immune cell profile in tumors and blood in lymphoma bearing mice was compared for a 3 times weekly dose of INT-151 and anti-CTLA-4 alone to the combination of 3 times weekly INT-151 plus anti-CTLA-4.
(§2) On day 17 after treatment began, when tumors reached a volume of 500-600 mm^3, mice were sacrificed and tumors and blood was collected for Fluorescent Activated Cell Sorting (FACS) analysis to determine the following immune cell types as listed in the table below:
(§3) Animals were to be monitored individually. Randomization into treatment groups was conducted when tumors reached an average of 43 mm^3 (n=6). Mice were euthanized after 17 days to collect tumors and blood for FACS analysis.

[2] = test system: E.G7-OVA murine lymphoma cells; experiment: E.G7-OVA syngeneic mouse lymphoma model, INT-151 with anti-CTLA-4 (E.G7-OVA-e214 protocol)
[3] = test system: immune cell profile in peripheral blood; experiment: Immune profiles of peripheral blood by FACS analysis in lymphoma bearing mice; format: in vivo, C57BL/6 mice
From the text: as §1, §2, §3

[4] = test system: immune cell profile in tumors; experiment: Immune profiles of tumors by FACS analysis in lymphoma bearing mice; format: in vivo, C57BL/6 mice
From the text: as §1, §2, §3

[5] = test system: E.G7-OVA murine lymphoma cells; experiment: Pilot dose response study, INT-151 once vs 3× weekly alone and with anti-CTLA-4 (E.G7-OVA-e215 protocol)
T cell = conditions: in the presence of tetanus toxoid or concanavalin A; Sinha 1988; cited from earlier work
[6] = INT-151 in combination with anti-CTLA-4
[7] = INT-151 100 μg/animal 1× weekly (alone or with anti-CTLA-4 days 6, 9, 12), only animals with tumor take
[8] = INT-151 100 μg/animal 3× weekly (alone or with anti-CTLA-4), only animals with tumor take

N[C@@H](Cc1ccc(O)cc1)C(=O)NCC(=O)O [INT-151, tyrosyl-glycine]
Median tumor volumes [1]: 831.0 mm^3 | synergy with anti-CTLA-4 on survival [2, 6]: acts synergistically | overall survival ([2]; compared to control, FIG. 3, FIG. 4): not INT-151, demonstrated improved overall survival | body-weight (clinical improvement) ([2]; compared to untreated Group 1, FIG. 2): slight positive clinical improvement | median tumor volume growth / tumor size ([2]; compared to untreated Group 1, INT-151 100 μg/animal i.p. weekly from Day 6, anti-CTLA-4 Days 6, 9, 12, FIG. 1): slight positive clinical improvement | CD4+ T cell population ([3]; compared to controls, FIG. 8): did not affect | CD8+ T cell population ([3]; compared to controls, FIG. 8): did not affect | M1 macrophage population ([3]; compared to controls, FIG. 8): unchanged | M2 macrophage population ([3]; compared to controls, FIG. 8): elevated | Monocytic myeloid suppressor cells ([3]; compared to controls, FIG. 8): not affected | granulocytic MDSCs ([3]; compared to controls, FIG. 8): reduced | regulatory T cells ([3]; compared to controls, FIG. 8): did not affect | total macrophage population ([3]; compared to controls, FIG. 8): increased | ratio of CD8+T/Treg ([3]; controls 8.4): 6.4 | CD4+T cells ([4]; compared to controls, FIG. 7): unchanged | CD8+ T cell population ([4]; compared to controls, FIG. 7): did not affect | M1 macrophage population ([4]; compared to controls, FIG. 7): decreased | M2 macrophage population ([4]; compared to controls, FIG. 7): increasing | granulocytic myeloid suppressor cells ([4]; compared to controls, FIG. 7): unchanged | regulatory T cells ([4]; compared to controls, FIG. 7): did not affect | ratio of CD8+T/Treg ([4]; control group 3.2): 2.5 | % Alive on day 26 [5, 7]: 100% | % Alive on day 29 [5, 7]: 100% | % Alive on day 33 [5, 7]: 60% | % Alive on day 36 [5, 7]: 20% | % Alive on day 43 [5, 7]: 0% | % Alive on day 26 [5, 8]: 100% | % Alive on day 29 [5, 8]: 100% | % Alive on day 33 [5, 8]: 80% | % Alive on day 36 [5, 8]: 40% | % Alive on day 40 [5, 8]: 30% | % Alive on day 43 [5, 8]: 0% | clinical improvement (median tumor volume and survival) ([5]; INT-151 3 times weekly, alone or with anti-CTLA-4, FIG. 5): greater clinical improvement | synergy with anti-CTLA-4 on survival [5, 6]: synergizes | tolerability ([5]; each treatment group): well tolerated

CC(C)CC(NC(=O)C(Cc1ccccc1)NC(=O)CNC(=O)CNC(=O)C(N)Cc1ccc(O)cc1)C(=O)O (stereo not shown) [leu-enkephalin, tyr-gly-gly-phe-leu]
T cell proliferation (T cell): elicit T cell proliferation

tyr-gly-gly-phe-met [met-enkephalin]
T cell proliferation (T cell): elicit T cell proliferation

Reference: patent US20190241660A1, “IMMUNE-STIMULATING PEPTIDES AND CHECKPOINT INHIBITORS, AND USES THEREOF FOR TREATING CANCER” (INTENDET SERVICES, LLC, priority 2017, published 2019)
